Measured values: the NIST ThermoML archive (doi:10.1016/j.tca.2019.01.031)

What was measured:
[1] = molar heat capacity at constant pressure; settings: 101.33 kPa, Crystal, DSC
[2] = 298 K; 101.33 kPa; Crystal; X-ray diffraction
[3] = xn = mol fraction of the nth substance listed; settings: 298 K, 101.33 kPa, Crystal, X-ray diffraction
[4] = molar heat capacity at constant pressure; xn = mol fraction of the nth substance listed; settings: 101.33 kPa, Crystal, DSC

O=P([O-])([O-])[O-].[La+3] [lanthanum orthophosphate]
[1]
Settings	molar heat capacity at constant pressure [J/K/mol]
298 K	97.5
300 K	98
350 K	107.3
400 K	114.3
450 K	120
500 K	124.9
550 K	129.3
600 K	133.2
650 K	136.9
700 K	140.4
750 K	143.8
800 K	147.1

Settings	mass density [kg/m3]
[2]	5063

O=P([O-])([O-])[O-].[La+3] [lanthanum orthophosphate] + O=P([O-])([O-])[O-].O=P([O-])([O-])[O-].[Sr+2].[Th+4]
Settings	mass density [kg/m3]
[3], x1 = 1	5063

[4], x1 = 1
Settings	molar heat capacity at constant pressure [J/K/mol]
298 K	97.5
300 K	98
350 K	107.3
400 K	114.3
450 K	120
500 K	124.9
550 K	129.3
600 K	133.2
650 K	136.9
700 K	140.4
750 K	143.8
800 K	147.1

O=P([O-])([O-])[O-].O=P([O-])([O-])[O-].[Sr+2].[Th+4] [strontium thorium(IV) phosphate]
[1]
Settings	molar heat capacity at constant pressure [J/K/mol]
298 K	177.6
300 K	178.6
350 K	197.2
400 K	210.2
450 K	220
500 K	227.8
550 K	234.2
600 K	239.6
650 K	244.4
700 K	248.8
750 K	252.8
800 K	256.6

Settings	mass density [kg/m3]
[2]	5619

O=P([O-])([O-])[O-].O=P([O-])([O-])[O-].[Sr+2].[Th+4] [strontium thorium(IV) phosphate] + O=P([O-])([O-])[O-].[La+3]
[3]
Settings	mass density [kg/m3]
x2 = 0	5619
x2 = 0.333	5505
x2 = 0.571	5395
x2 = 0.75	5295
x2 = 0.889	5203

molar heat capacity at constant pressure [J/K/mol], [4]
Settings	x2 = 0	x2 = 0.333	x2 = 0.571	x2 = 0.75	x2 = 0.889
298 K	177.6	172.2	148.6	130.3	117
300 K	178.6	172.9	149.2	130.6	117.4
350 K	197.2	186.9	158.5	139.5	127.5
400 K	210.2	197.9	166.3	146.8	135.2
450 K	220	207.2	173.1	153.1	141.5
500 K	227.8	215.5	179.1	158.8	147.1
550 K	234.2	223.2	184.8	164	152.1
600 K	239.6	230.4	190.3	169.1	156.8
650 K	244.4	237.2	195.5	173.9	161.1
700 K	248.8	243.9	200.6	178.6	165.3
750 K	252.8	250.2	205.6	183.3	169.3
800 K	256.6	256.6	210.6	187.8	173.2

[O-2].[O-2].[Zr+4] [zirconium oxide]
[1]
Settings	molar heat capacity at constant pressure [J/K/mol]
313 K	56.9
323 K	57.7
333 K	58.6
343 K	59.3
353 K	60
363 K	60.7
373 K	61.4
383 K	61.9
393 K	62.5
403 K	63
413 K	63.6
423 K	64
433 K	64.5
443 K	64.9
453 K	65.4
463 K	65.8
473 K	66.2
483 K	66.6
493 K	66.9
503 K	67.3
513 K	67.6
523 K	68
533 K	68.3
543 K	68.6
553 K	68.9
563 K	69.2
573 K	69.5
583 K	69.8
593 K	70.1
603 K	70.4
613 K	70.6
623 K	70.9
633 K	71.2
643 K	71.4
653 K	71.7
663 K	71.9
673 K	72.2
683 K	72.4
693 K	72.7
703 K	72.9
713 K	73.1
723 K	73.4
733 K	73.6
743 K	73.8
753 K	74.1
763 K	74.3
773 K	74.5
783 K	74.7
793 K	74.9
800 K	75.1
